From patent US20180251431A1 (VERTEX PHARMACEUTICALS INCORPORATED, priority 2016, published 2018)

These compounds were tested on HEK293 cells (assay: HEK293 VLCFA-LPC IC50 determination (13C-labeled C26:0 LPC by UHPLC/MS)). Settings: Homo sapiens, HEK293, HEK293 cells; average of one or more replicates; read-out: Average HEK293 IC50.
Format: cell-based, human
Method in brief: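 Suspension HEK293 cells (final 0.5 million/mL after mixing with equal volume) incubated 48 hours with compound plus 13C-acetate (1.0 mg/mL in added media), shaking at 37° C. Lipids extracted with hexane/isopropanol or methanol, C13:0 LPC standard. UHPLC/MS of 13C-labeled C26:0 LPC (638.500/104.100 m/z); IC50 by four-parameter fit.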

First: CCC1(C)CC1(C(=O)Nc1ccn(-c2ccnc(F)c2)n1)c1ccccc1 (stereo not shown) [Compound 168, 2-ethyl-N-[1-(2-fluoro-4-pyridyl)pyrazol-3-yl]-2-methyl-1-phenyl-cyclopropanecarboxamide]
Second: O=C(Nc1ccn(-c2ccnc(F)c2)n1)C1(c2ccccc2)CC(F)(F)C1 [Compound 172, 3,3-difluoro-N-[1-(2-fluoro-4-pyridyl)pyrazol-3-yl]-1-phenyl-cyclobutanecarboxamide]
The IC50 of the first is 4.4-fold lower: 0.086 µM for the first, 0.38 µM for the second.

Compared with `CSCC(C(=O)Nc1ccn(-c2ccccc2)n1)c1ccccc1` (stereo not shown) [Compound 170, 3-methylsulfanyl-2-phenyl-N-(1-phenylpyrazol-3-yl)propanamide], `CCCC(C(=O)Nc1ccn(-c2ccccc2)n1)c1ccccc1` (stereo not shown) [Compound 176, 2-phenyl-N-(1-phenylpyrazol-3-yl)pentanamide] is lower in IC50: > 5 µM for the first, 0.87 µM for the second. The second is the more potent here.

Going from `CCC(C(=O)Nc1ccn(-c2ccnc(F)c2)n1)c1ccccc1` (stereo not shown) [Compound 171, N-[1-(2-fluoro-4-pyridyl)pyrazol-3-yl]-2-phenyl-butanamide] to `CCCC(C(=O)Nc1ccn(-c2ccnc(F)c2)n1)c1ccccc1` (stereo not shown) [Compound 173, N-(1-(2-fluoropyridin-4-yl)-1H-pyrazol-3-yl)-2-phenylpentanamide], the IC50 falls from 0.14 µM to 0.072 µM (1.9-fold). The second is the more potent here.

`O=C(Nc1ccn(-c2ccnc(F)c2)n1)C1(c2ccccc2)CCOCC1` [Compound 174, N-[1-(2-fluoro-4-pyridyl)pyrazol-3-yl]-4-phenyl-tetrahydropyran-4-carboxamide] and `O=C(Nc1ccn(-c2ccccc2)n1)C1(c2ccccc2)CCOCC1` [Compound 178, 4-phenyl-N-(1-phenylpyrazol-3-yl)tetrahydropyran-4-carboxamide] cannot be ordered by IC50: > 5 µM for the first, > 5 µM for the second.

First: O=C(Nc1ccn(-c2ccnc(F)c2)n1)C(c1ccccc1)C1CC1 (stereo not shown) [Compound 175, 2-cyclopropyl-N-[1-(2-fluoro-4-pyridyl)pyrazol-3-yl]-2-phenyl-acetamide]
Second: O=C(Nc1ccn(-c2ccccc2)n1)C(c1ccccc1)C1CC1 (stereo not shown) [Compound 179, 2-cyclopropyl-2-phenyl-N-(1-phenylpyrazol-3-yl)acetamide]
The IC50 of the first is 3.1-fold lower: 0.52 µM for the first, 1.6 µM for the second.

Going from `O=C(Nc1ccn(-c2ccccc2)n1)C1(c2ccccc2)CC(F)(F)C1` [Compound 177, 3,3-difluoro-1-phenyl-N-(1-phenylpyrazol-3-yl)cyclobutanecarboxamide] to `O=C(Nc1ccn(-c2ccccc2F)n1)C1(c2ccccc2)CC1` [Compound 188, N-[1-(2-fluorophenyl)pyrazol-3-yl]-1-phenyl-cyclopropanecarboxamide], the IC50 falls from 0.79 µM to 0.14 µM (5.6-fold). The second is the more potent here.

Compared with `O=C(Nc1ccn(-c2cncc(F)c2)n1)C1(c2ccccc2F)CC1` [Compound 180, 1-(2-fluorophenyl)-N-[1-(5-fluoro-3-pyridyl)pyrazol-3-yl]cyclopropanecarboxamide], `O=C(Nc1ccn(-c2cncc(F)c2)n1)C1(c2ccccc2)CC1` [Compound 201, N-[1-(5-fluoro-3-pyridyl)pyrazol-3-yl]-1-phenyl-cyclopropanecarboxamide] is 2.3-fold higher in IC50: 0.02 µM for the first, 0.046 µM for the second.

`O=C(Cc1ccccc1)Nc1ccn(-c2ccc(F)cc2)n1` [Compound 181, N-[1-(4-fluorophenyl)pyrazol-3-yl]-2-phenyl-acetamide] and `O=C(Cc1ccccc1F)Nc1ccn(-c2ccc(F)cc2)n1` [Compound 183, 2-(2-fluorophenyl)-N-[1-(4-fluorophenyl)pyrazol-3-yl]acetamide] are within 1.5-fold of each other in IC50: 0.25 µM for the first, 0.17 µM for the second.

Going from `O=C(Nc1ccn(-c2ccc(F)cc2)n1)C1(c2ccccc2F)CC1` [Compound 182, 1-(2-fluorophenyl)-N-[1-(4-fluorophenyl)pyrazol-3-yl]cyclopropanecarboxamide] to `O=C(Nc1ccn(-c2ccc(F)cc2)n1)C1(c2ccccc2)CC1` [Compound 184, N-[1-(4-fluorophenyl)pyrazol-3-yl]-1-phenyl-cyclopropanecarboxamide], the IC50 rises from 0.074 µM to 0.28 µM (3.8-fold). The first is the more potent here.

`O=C(Cc1ccccc1)Nc1ccn(-c2ccccc2F)n1` [Compound 185, N-[1-(2-fluorophenyl)pyrazol-3-yl]-2-phenyl-acetamide] and `O=C(Cc1ccccc1F)Nc1ccn(-c2ccccc2F)n1` [Compound 187, 2-(2-fluorophenyl)-N-[1-(2-fluorophenyl)pyrazol-3-yl]acetamide] are within 1.5-fold of each other in IC50: 0.47 µM for the first, 0.52 µM for the second.

`O=C(Nc1ccn(-c2ccccc2F)n1)C1(c2ccccc2F)CC1` [Compound 186, 1-(2-fluorophenyl)-N-(1-(2-fluorophenyl)-1H-pyrazol-3-yl)cyclopropane-1-carboxamide] and `O=C(Nc1ccn(-c2ccccn2)n1)C1(c2ccccc2F)CC1` [Compound 210, 1-(2-fluorophenyl)-N-[1-(2-pyridyl)pyrazol-3-yl]cyclopropanecarboxamide] are within 1.5-fold of each other in IC50: 0.14 µM for the first, 0.17 µM for the second.

First: O=C(Cc1ccccc1)Nc1ccn(-c2ccc(F)c(F)c2)n1 [Compound 189, N-[1-(3,4-difluorophenyl)pyrazol-3-yl]-2-phenyl-acetamide]
Second: O=C(Cc1ccccc1)Nc1ccn(-c2ccc(Cl)c(F)c2)n1 [Compound 193, N-[1-(4-chloro-3-fluoro-phenyl)pyrazol-3-yl]-2-phenyl-acetamide]
The IC50 of the first is lower: 0.23 µM for the first, > 5 µM for the second.

First: O=C(Nc1ccn(-c2ccc(F)c(F)c2)n1)C1(c2ccccc2F)CC1 [Compound 190, N-[1-(3,4-difluorophenyl)pyrazol-3-yl]-1-(2-fluorophenyl)cyclopropanecarboxamide]
Second: O=C(Nc1ccn(-c2ccc(Cl)c(F)c2)n1)C1(c2ccccc2F)CC1 [Compound 194, N-[1-(4-chloro-3-fluoro-phenyl)pyrazol-3-yl]-1-(2-fluorophenyl)cyclopropanecarboxamide]
The IC50 of the first is lower: 0.15 µM for the first, > 5 µM for the second. The first is the more potent here.

Going from `O=C(Cc1ccccc1F)Nc1ccn(-c2ccc(F)c(F)c2)n1` [Compound 191, N-[1-(3,4-difluorophenyl)pyrazol-3-yl]-2-(2-fluorophenyl)acetamide] to `O=C(Cc1ccccc1F)Nc1ccn(-c2ccc(Cl)c(F)c2)n1` [Compound 195, N-[1-(4-chloro-3-fluoro-phenyl)pyrazol-3-yl]-2-(2-fluorophenyl)acetamide], the IC50 rises from 0.24 µM to > 2 µM.

Compared with `O=C(Nc1ccn(-c2ccc(F)c(F)c2)n1)C1(c2ccccc2)CC1` [Compound 192, N-[1-(3,4-difluorophenyl)pyrazol-3-yl]-1-phenyl-cyclopropanecarboxamide], `O=C(Nc1ccn(-c2ccc(Cl)c(F)c2)n1)C1(c2ccccc2)CC1` [Compound 196, N-[1-(4-chloro-3-fluoro-phenyl)pyrazol-3-yl]-1-phenyl-cyclopropanecarboxamide] is higher in IC50: 0.6 µM for the first, > 5 µM for the second. The first is the more potent here.

`O=C(Cc1ccccc1)Nc1ccn(-c2ccc(F)c(Cl)c2)n1` [Compound 197, N-[1-(3-chloro-4-fluoro-phenyl)pyrazol-3-yl]-2-phenyl-acetamide] and `O=C(Cc1ccccc1F)Nc1ccn(-c2ccc(F)c(Cl)c2)n1` [Compound 199, N-[1-(3-chloro-4-fluoro-phenyl)pyrazol-3-yl]-2-(2-fluorophenyl)acetamide] cannot be ordered by IC50: > 5 µM for the first, > 5 µM for the second.

`O=C(Nc1ccn(-c2ccc(F)c(Cl)c2)n1)C1(c2ccccc2F)CC1` [Compound 198, N-[1-(3-chloro-4-fluoro-phenyl)pyrazol-3-yl]-1-(2-fluorophenyl)cyclopropanecarboxamide] and `O=C(Nc1ccn(-c2ccc(F)c(Cl)c2)n1)C1(c2ccccc2)CC1` [Compound 200, N-[1-(3-chloro-4-fluoro-phenyl)pyrazol-3-yl]-1-phenyl-cyclopropanecarboxamide] are within 1.5-fold of each other in IC50: 0.72 µM for the first, 0.7 µM for the second.

First: O=C(Nc1ccn(-c2ccnnc2)n1)C1(c2ccccc2F)CC1 [Compound 202, 1-(2-fluorophenyl)-N-(1-pyridazin-4-ylpyrazol-3-yl)cyclopropanecarboxamide]
Second: O=C(Nc1ccn(-c2cccnc2)n1)C1(c2ccccc2F)CC1 [Compound 214, 1-(2-fluorophenyl)-N-[1-(3-pyridyl)pyrazol-3-yl]cyclopropanecarboxamide]
The IC50 of the first is 2.1-fold higher: 0.095 µM for the first, 0.045 µM for the second. The second is the more potent here.

`O=C(Cc1ccccc1F)Nc1ccn(-c2ccnc(F)c2)n1` [Compound 203, 2-(2-fluorophenyl)-N-[1-(2-fluoro-4-pyridyl)pyrazol-3-yl]acetamide] and `O=C(Cc1ccccc1F)Nc1ccn(-c2cncc(F)c2)n1` [Compound 204, 2-(2-fluorophenyl)-N-[1-(5-fluoro-3-pyridyl)pyrazol-3-yl]acetamide] are within 1.5-fold of each other in IC50: 0.1 µM for the first, 0.097 µM for the second.

Going from `O=C(Cc1ccccc1)Nc1ccn(-c2cncc(F)c2)n1` [Compound 205, N-[1-(5-fluoro-3-pyridyl)pyrazol-3-yl]-2-phenyl-acetamide] to `O=C(Cc1ccccc1)Nc1ccn(-c2cccnc2)n1` [Compound 213, 2-phenyl-N-(1-(pyridin-3-yl)-1H-pyrazol-3-yl)acetamide], the IC50 rises from 0.72 µM to 1.2 µM (1.7-fold).

`O=C(Nc1ccn(-c2ccncn2)n1)C1(c2ccccc2F)CC1` [Compound 206, 1-(2-fluorophenyl)-N-(1-pyrimidin-4-ylpyrazol-3-yl)cyclopropanecarboxamide] and `O=C(Nc1ccn(-c2ccncn2)n1)C1(c2ccccc2)CC1` [Compound 207, 1-phenyl-N-(1-pyrimidin-4-ylpyrazol-3-yl)cyclopropanecarboxamide] are within 1.5-fold of each other in IC50: 0.034 µM for the first, 0.036 µM for the second.

`O=C(Cc1ccccc1F)Nc1ccn(-c2ccncn2)n1` [Compound 208, 2-(2-fluorophenyl)-N-(1-pyrimidin-4-ylpyrazol-3-yl)acetamide] and `O=C(Cc1ccccc1F)Nc1ccn(-c2ccccn2)n1` [Compound 211, 2-(2-fluorophenyl)-N-[1-(2-pyridyl)pyrazol-3-yl]acetamide] are within 1.5-fold of each other in IC50: 2.3 µM for the first, 1.7 µM for the second.

First: O=C(Cc1ccccc1)Nc1ccn(-c2ccncn2)n1 [Compound 209, 2-phenyl-N-(1-pyrimidin-4-ylpyrazol-3-yl)acetamide]
Second: O=C(Nc1ccn(-c2ccccn2)n1)C1(c2ccccc2)CC1 [Compound 212, 1-phenyl-N-[1-(2-pyridyl)pyrazol-3-yl]cyclopropanecarboxamide]
The IC50 of the first is 12-fold higher: 2.3 µM for the first, 0.19 µM for the second.
